In patent US20230270817A1, “VIMENTIN INHIBITORS” (Filamon Pty Ltd, priority 2020, published 2023):
Entries after “also recorded” stand apart in the source; their conditions may differ. Non-standard residues stand in square brackets, D forms with d. 2Nal = N[C@@H](Cc1ccc2ccccc2c1)C(=O)O

Columns and labels:
[1] = target: T1, hGIIA binding to full length vimentin (Homo sapiens, UniProt P08670); test: Colorimetric enzyme immunoassay (EIA) of inhibitor effect on the hGIIA-vimentin interaction, full length vimentin; conditions: immobilised full length vimentin, hGIIA 250 ng/mL, inhibitors 5-100 μM, FIG. 2B top panel
T1 construct: His6 tag (HHHHHH) from pET15b (N); thrombin cleavage site (LVPRGS) (N); made in house; host or cells: vimentin: Rosetta 2 E. coli (pET15b)
Experimental: (§1) Purified vimentin protein solutions (full length, coil 1 or coil 2 fragments) were diluted to 10-20 μg/mL concentration in PBS and seeded to a 96-well microplate with a 100 μL/well volume. After an overnight incubation at 4° C., the plate was emptied. Each well was then blocked with 200 μL of 1% BSA in PBS. The blocked plate was incubated for at least an overnight period at 4° C. and used within 1 week.

[2] = test system: LNCaP prostate cancer cells; test: Murine prostate cancer xenograft model; assay type: in vivo, male Balb/c nu/nu mice; conditions: c2 0.1 mg/kg in saline thrice weekly, eight-week period, compared to vehicle
Experimental: Animals (male Balb/c nu/nu mice, aged six weeks, n=15 per group) were injected subcutaneously in the right rear flank with 1×10^6 LNCaP prostate cancer cells. Tumour size was monitored with calipers measuring tumour width and length and tumour volume calculated as described (Sved et al., Cancer Res, 2004. 64(19): p. 6934-40). When tumours were palpable and measured >5×5 mm, animals were randomised and entered into the study. […] Tumour volume data are mean±SE.

[3] = target: T2, vimentin coil 1 fragment (residues 96 to 253), recombinant, His-tagged (human, UniProt P08670 96-253); test: EIA, plate-bound vimentin coil 1, detection with 4A1-AP
T2 construct: Removal of the tag is not reported; also called coil 1 segment
Experimental: as §1

T1 sequence (P08670 whole entry): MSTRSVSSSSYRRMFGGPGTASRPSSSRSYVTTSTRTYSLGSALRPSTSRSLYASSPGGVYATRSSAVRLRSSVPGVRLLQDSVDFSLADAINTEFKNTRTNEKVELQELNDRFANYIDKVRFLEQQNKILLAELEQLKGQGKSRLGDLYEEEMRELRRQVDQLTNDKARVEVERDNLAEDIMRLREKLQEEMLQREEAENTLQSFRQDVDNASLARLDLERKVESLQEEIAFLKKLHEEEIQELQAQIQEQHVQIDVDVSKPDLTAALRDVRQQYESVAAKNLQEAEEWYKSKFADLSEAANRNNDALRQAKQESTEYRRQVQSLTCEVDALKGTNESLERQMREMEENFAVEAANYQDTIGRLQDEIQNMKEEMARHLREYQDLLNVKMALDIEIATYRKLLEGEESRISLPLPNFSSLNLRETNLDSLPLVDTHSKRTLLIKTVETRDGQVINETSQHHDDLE
T2 sequence (P08670 other isoform, or with tags, fused parts or gaps): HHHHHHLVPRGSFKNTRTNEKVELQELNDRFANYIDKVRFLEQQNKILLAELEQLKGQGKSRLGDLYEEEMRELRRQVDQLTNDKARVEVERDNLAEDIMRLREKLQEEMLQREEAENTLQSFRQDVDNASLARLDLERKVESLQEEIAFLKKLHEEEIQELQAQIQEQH

CCc1c(CC(N)=O)c2cc(OCCCP(=O)(O)O)ccc2n1Cc1ccccc1 [LY311727, [3-[[3-(2-amino-2-oxoethyl)-2-ethyl-1-(phenylmethyl)-1H-indol-5-yl]oxy]propyl]-phosphonic acid]
inhibition of hGIIA binding to full length vimentin [1]: c2 exhibited greater inhibition of hGIIA binding to full length vimentin than LY311727

cyclo-((2-Nal)-Leu-Ser-(2-Nal)-Arg) (cyclo([2Nal]LS[2Nal]R); SMILES CC(C)C[C@@H]1NC(=O)[C@H](Cc2ccc3ccccc3c2)NC(=O)[C@H](CCCNC(=N)N)NC(=O)[C@H](Cc2ccc3ccccc3c2)NC(=O)[C@H](CO)NC1=O)
growth in tumour volume [2]: significantly reduced the growth in tumour volume; also recorded: potently slows the growth of prostate cancer

B1: human group IIA secreted phospholipase A2 (hGIIA), recombinant, purified from conditioned media of CHO cell line 2B1 (enzyme)
chain: NLVNFHRMIKLTTGKEAALSYGFYGCHCGVGGRGSPKDATDRCCVTHDCCYKRLEKRGCGTKFLSYKFSNSGSRITCAKQDSCRSQLCECDKAAATCFARNKTTYNKKYQYYSNKHCRGSTPRC
notes: this was not applied; also called human sPLA2-IIA; sPLA2
binding result [3]: no binding (tested: 5-1000 ng/mL hGIIA)
